Read-outs that look alike come from different tables or passages of the source.
How the values were obtained:
human receptor PXR [1] = target: T1, human receptor PXR (Homo sapiens, UniProt O75469); test: activation of the PXR receptor: CYP3A4 luciferase reporter induction in cell line DPX2; conditions: for Mean RLU: cell line DPX2P29; for Induction above DMSO: ratio of luciferase activity to DMSO-treated cells
T1 sequence (O75469 1-434): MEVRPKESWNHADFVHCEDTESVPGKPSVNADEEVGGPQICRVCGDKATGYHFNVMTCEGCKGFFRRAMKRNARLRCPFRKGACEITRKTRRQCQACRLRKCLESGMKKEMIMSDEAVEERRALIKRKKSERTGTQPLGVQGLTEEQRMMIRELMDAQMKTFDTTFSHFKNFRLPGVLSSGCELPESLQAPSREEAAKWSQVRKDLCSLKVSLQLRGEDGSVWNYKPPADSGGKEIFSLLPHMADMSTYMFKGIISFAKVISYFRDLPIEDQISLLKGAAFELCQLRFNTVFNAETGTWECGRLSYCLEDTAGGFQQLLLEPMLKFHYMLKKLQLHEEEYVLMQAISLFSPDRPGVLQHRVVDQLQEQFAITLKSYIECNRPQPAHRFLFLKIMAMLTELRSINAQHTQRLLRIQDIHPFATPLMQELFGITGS
Method: (§1) The activity of the new rifamycins is expressed as a ratio between luciferase activity in cells treated with the tested substance and that of the cells treated with DMSO. The viability and morphology of the cells are analyzed by optical microscopy.

[2] = tested on: Micrococcus luteus ATCC 10240; test: plate diffusion method, antibacterial activity and MIC; type: cell-based
Method: To verify antibacterial activity, the plate diffusion method is used as described in the pharmacopeia: • A quantity of the sample is weighed and slowly dissolved in 25 ml of methanol R • A quantity of 0.05 M phosphate buffer at pH 7.0 is added so as to obtain the following concentrations: 50 μg/ml, 20 μg/ml, 10 μg/ml and 5 μg/ml • Plates were prepared with appropriate culture medium (agar thickness approximately 2-5 mm) inoculated with a suspension of Micrococcus luteus ATCC 10240, Staphylococcus aureus ATCC 6538 and Escherichia coli ATCC 8739. • 0.1 ml of the different concentrations of each sample were dispensed into the wells formed in the agar plates • The plates were held for 1-2 hours at ambient temperature to allow diffusion of the sample and then incubated at 35-39° C. for not less than 18 hours. • The diameters of the inhibition halos of the compounds were measured with a gauge and compared with those of the reference substance, the results being expressed as percentages.

cell line DPX2 [3] = test: viability and morphology of the cells by optical microscopy
Method: as §1

human receptor PXR [4] = target: T1, human receptor PXR; conditions: 10 μM
Method: as §1

cell line DPX2 [5] = conditions: human, 10 μM
Method: as §1

[6] = Table A, 5 μg/ml, inhibition halo vs reference standard (rifamycin S for SX1, rifampicin for SX4 and SX5)
[7] = Table A, 10 μg/ml, inhibition halo vs reference standard (rifamycin S for SX1, rifampicin for SX4 and SX5)
[8] = Table A, 50 μg/ml, inhibition halo vs reference standard (rifamycin S for SX1, rifampicin for SX4 and SX5)
[9] = Table B, 5 μg/ml, compared with standard rifampicin
[10] = Table B, 10 μg/ml, compared with standard rifampicin
[11] = Table B, 20 μg/ml, compared with standard rifampicin
[12] = Table B, 50 μg/ml, compared with standard rifampicin

SMILES | Mean RLU (human receptor PXR [1]; 5 μM) [RLU] | Induction above DMSO (human receptor PXR [1]; 5 μM) | Mean RLU (human receptor PXR [1]; 10 μM) [RLU] | Induction above DMSO (human receptor PXR [1]; 10 μM) | Mean RLU (human receptor PXR [1]; 20 μM) [RLU] | Induction above DMSO (human receptor PXR [1]; 20 μM) | Mean RLU (human receptor PXR [1]; 40 μM) [RLU] | Induction above DMSO (human receptor PXR [1]; 40 μM) | percentage antibacterial activity [2, 6] [%] | percentage antibacterial activity [2, 7] [%] | percentage antibacterial activity [2, 8] [%] | Cell appearance**: cell confluence (%) (cell line DPX2 [3]; 5 μM) | Cell appearance**: morphology (cell line DPX2 [3]; 5 μM) | Cell appearance**: cell confluence (%) (cell line DPX2 [3]; 10 μM) | Cell appearance**: cell confluence (%) (cell line DPX2 [3]; 20 μM) | Cell appearance**: cell confluence (%) (cell line DPX2 [3]; 40 μM) | percentage antibacterial activity [2, 9] [%] | percentage antibacterial activity [2, 10] [%] | percentage antibacterial activity [2, 11] [%] | percentage antibacterial activity [2, 12] [%] | further results
CO[C@H]1/C=C/O[C@@]2(C)Oc3c(C)c(O)c4c(c3C2=O)C(=O)C(N2CCOCC2)=C(NC(=O)/C(C)=C\C=C\[C@H](C)[C@@H]2OC(C)(C)O[C@@H]([C@@H](C)[C@H](OC(C)=O)[C@@H]1C)[C@@H]2C)C4=O [Example 23, 3-morpholine-21,23 O-isopropylidenerifamycin S, reference compound] | 6537 | 29.3 | 7869 | 35.3 | 4738 | 21.2 | 396 | 1.8 | 39 | 40 | 69 | 30 | MCM | 30 | 10 | 0 |  |  |  |  | PXR activation, comparison in words (human receptor PXR [1]; compared with the compounds of the invention): decidedly less active; MIC (Minimum Inhibitory Concentration) ([2]; Table A): <5 µg/mL
COC1CCOC2(C)Oc3c(C)c(O)c4c(O)c(c(C=NN5CCN(C)CC5)c(O)c4c3C2=O)NC(=O)C(C)CCCC(C)C2OC(C)(C)OC(C2C)C(C)C(OC(C)=O)C1C (centres unmarked) [Example 3, 3-(4′-methyl-1′-piperazinyl-iminomethyl)-21,23-O-isopropylidene-16,17,18,19,28,29-hexahydrorifamycin SV] | 8052 | 36.1 | 10848 | 48.6 | 7125 | 32.0 | 4243 | 19.0 | 0 | 0 | 0 | 30 | MCM | 30 | 20 | 20 |  |  |  |  | MIC (Minimum Inhibitory Concentration) ([2]; Table A): >50 µg/mL; Cell appearance**: morphology (cell line DPX2 [3]; 10 μM): MCM; Cell appearance**: morphology (cell line DPX2 [3]; 20 μM): MCM
COC1CCOC2(C)Oc3c(C)c(O)c4c(O)c(c(C=NN5CCN(C(C)C)CC5)c(O)c4c3C2=O)NC(=O)C(C)CCCC(C)C(O)C(C)C(O)C(C)C(OC(C)=O)C1C (centres unmarked) [Example 15, 3-(4′-isopropyl-1′-piperazinyl-iminomethyl)-16,17,18,19,28,29-hexahydrorifamycin SV] |  |  |  |  |  |  |  |  |  |  |  |  |  |  |  |  | 0 | 0 | 0 | 0 | MIC (Minimum Inhibitory Concentration) ([2]; Table B): >50 µg/mL
CCOCCN1CCN(N=Cc2c3c(O)c4c(O)c(C)c5c(c4c2O)C(=O)C(C)(OCCC(OC)C(C)C(OC(C)=O)C(C)C(O)C(C)C(O)C(C)CCCC(C)C(=O)N3)O5)CC1 (centres unmarked) [Example 12, 3-[4′-(2-ethoxyethyl)-1′-piperazinyl-iminomethyl]-16,17,18,19,28,29-hexahydrorifamycin SV] |  |  |  |  |  |  |  |  |  |  |  |  |  |  |  |  | 0 | 0 | 0 | 0 | MIC (Minimum Inhibitory Concentration) ([2]; Table B): >50 µg/mL
COC1CCOC2(C)Oc3c(C)c(O)c4c(O)c(c(C=NN5CCN(C)CC5)c(O)c4c3C2=O)NC(=O)C(C)CCCC(C)C(O)C(C)C(O)C(C)C(OC(C)=O)C1C (centres unmarked) [Example 1, 3-(4′-methyl-1′-piperazinyl-iminomethyl)-16,17,18,19,28,29-hexahydrorifamycin SV] | 8698 | 39.0 | 12069 | 54.1 | 12918 | 57.9 | 14636 | 65.6 | 0 | 0 | 42 | 30 | MCM | 30 | 30 | 30 |  |  |  |  | Cell appearance**: morphology (cell line DPX2 [3]; 10 μM): MCM; Cell appearance**: morphology (cell line DPX2 [3]; 20 μM): MCM; Cell appearance**: morphology (cell line DPX2 [3]; 40 μM): MCM
CCN1CCN(N=Cc2c3c(O)c4c(O)c(C)c5c(c4c2O)C(=O)C(C)(OCCC(OC)C(C)C(OC(C)=O)C(C)C(O)C(C)C(O)C(C)CCCC(C)C(=O)N3)O5)CC1 (centres unmarked) [Example 6, 3-(4′-ethyl-1′-piperazinyl-iminomethyl)-16,17,18,19,28,29-hexahydrorifamycin SV] |  |  |  |  |  |  |  |  |  |  |  |  |  |  |  |  | 0 | 0 | 0 | 39 | 
CC[C@H](C)C(=O)O[C@H]1CCC=C2C=C[C@H](C)[C@H](CC[C@@H]3C[C@@H](O)CC(=O)O3)[C@H]21 [Mevastafin, Mevastatin] |  |  |  | 3.4 |  |  |  |  |  |  |  |  |  |  |  |  |  |  |  |  | Mean RLU (human receptor PXR [4]): 758 RLU; Cell appearance**: cell confluence (%) (cell line DPX2 [5]): 30%; Cell appearance**: morphology (cell line DPX2 [5]): MCM
